Tested on: C57BL/6N mice
Test: Hair shaft diameter of regrown body hair after hair pull-out (Example 2)
Type: in vivo
Details: 1 wt % in 50% ethanol, once/day 100 μl, day 21 after the application; FIG. 15, P<0.01
Text: In C57BL6/N mice, it is known that when body hair of the back is pulled out, hair cycles in the pulled-out region are forced to shift to the […], and as a result, the hair cycles in the pulled-out region are synchronized. Therefore, only hair in the anagen phase becomes observable by decreasing variations in hair cycles. Approximately 7 days after hair is pulled out, as a sign of the anagen phase, skin color changing into gray is observed as melanocytes in hair follicles start synthesizing melanin, in addition to growth of pigmented hair. Further, approximately 10 days after hair is pulled out, new hair growth is observed in the pulled-out region. […] Accordingly, hair growth activity can be evaluated from a viewpoint of an increase in hair shaft diameter by measuring the hair shaft diameter of body hair grown in the pulled-out region approximately 21 days after hair is pulled out. […]
The application was performed for two groups (test solution-applied group and negative control group (50% ethanol-applied group)), where each group consisted of six mice. […] About 20 hair shafts were collected from each mouse, and the hair shaft diameter was measured for 10 hair shafts randomly selected from 120 hair shafts in total collected from 6 mice of each group. […]

OC1C(O)C(O)C(O)C(O)C1O [D-chiro-inositol]
Hair shaft diameter vs negative control group: significantly larger
